Reference: article PMC12603070, “A high-throughput screening approach to discover potential colorectal cancer chemotherapeutics: repurposing drugs to identify novel disruptors of 14-3-3 proteins” (Cell Death & Disease, 2025)
Counter-ions that a name gives are not always drawn. Like-named read-outs stand apart in the source and are kept apart here.

Key:
[1] = molecular target: T1, 14-3-3ζ:BAD-112-136F interactions (Homo sapiens, UniProt P63104); test: BRET sensor screen for disruption of 14-3-3ζ-Rluc8:BAD-112-136F-mCitrine in living NIH-3T3 cells; format: cell-based, murine; design: inhibition: dose or concentration left out as unconfirmed; BRET reduction on NIH-3T3: unit not given here; settings: for inhibition at 20 µM / inhibition: NIH3T3, 3 h, read-out: BRET reduction on NIH-3T3
T1 construct: expressed in transfected cells; host or cells: NIH-3T3 fibroblasts, bi-directional pBI-CMV1 plasmid
T1 sequence (P63104 1-245): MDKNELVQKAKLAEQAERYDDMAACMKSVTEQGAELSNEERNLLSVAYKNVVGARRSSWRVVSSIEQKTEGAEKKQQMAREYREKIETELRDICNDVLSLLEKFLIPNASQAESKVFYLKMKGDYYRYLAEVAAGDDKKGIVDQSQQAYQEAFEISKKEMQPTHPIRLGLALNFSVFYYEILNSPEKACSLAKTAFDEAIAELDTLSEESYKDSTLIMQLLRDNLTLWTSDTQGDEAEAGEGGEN
Experimental: The Z’-score, which evaluates the robustness of an HTS assay readout, was calculated according to standard protocols. For the HTS, 384-well plates were coated with 100 μg/mL poly-L-ornithine (Sigma, Missouri, United States; #P3655) overnight at 37 °C, followed by rinsing with sterilized water. NIH-3T3 cells were transfected with the BRET sensor two days prior to experimentation, followed by replating onto the pre-coated 384-well plates at a density of 20,000 cells/well. After 24 h of incubation at 37 °C, growth media was replaced by Krebs buffer (pH 7.4).

NIH-3T3 cells = test: Hoechst/propidium iodide cell death assay in NIH-3T3; format: cell-based; settings: for cytotoxicity at 20 µM: Mus musculus, NIH3T3, 24 h, read-out: Percentage of cell death % 24h NIH3t3
From the text: (§1) A high-content imaging system (PerkinElmer; Operetta CLS), was used to quantify cell death and apoptosis by calculating the number of propidium iodide-positive cells relative to Hoechst-positive cells, and the number of Annexin V-positive cells relative to Hoechst-positive cells, respectively.

HT-29 cells = test: Hoechst/propidium iodide cell death assay in HT-29; format: cell-based, human; settings: for cytotoxicity at 20 µM: Homo sapiens; for %Cell death HT-29: time not given
From the text: as §1

Caco-2 cells = format: cell-based; settings: for Percentage of cell death % 24h CACO-2: 20 µM; for Percentage of cell death % 48h, Caco-2: 20 μM
From the text: as §1

[2] = NIH-3T3 cells, hits from the primary screen
[3] = HT-29, 24 h, read-out: Percentage of cell death % 24h HT-29
[4] = HT-29, 48 h, read-out: Percentage of cell death % 48h, HT-29
[5] = NIH-3T3 expressing BRET sensor, 20 µM, 3 h
[6] = HT-29, 24 h, 20 µM, 24 h, read-out: Percentage of cell death % 24h HT-29
[7] = HT-29, 48 h, HT-29, 48h, 20 μM, read-out: Percentage of cell death % 48h, HT-29

| Compound | inhibition at 20 µM [1] | BRET reduction on NIH-3T3 [1, 2] | cytotoxicity at 20 µM (NIH-3T3 cells) | Percentage of cell death % 48h, NIH3T3 (NIH-3T3 cells) | cytotoxicity at 20 µM (HT-29 cells; [3]) | cytotoxicity at 20 µM (HT-29 cells; [4]) | Percentage of cell death % 24h CACO-2 (Caco-2 cells) | Percentage of cell death % 48h, Caco-2 (Caco-2 cells) | BRET reduction on NIH-3T3 [1, 5] | Percentage of cell death % 24h NIH3t3 (NIH-3T3 cells; 20 µM, 24 h) | Percentage of cell death % 24h HT-29 (HT-29 cells; 20 µM, 24 h) | Percentage of cell death % 48h, HT-29 (HT-29 cells; HT-29, 48h, 20 μM) | inhibition [1, 2] | inhibition at 20 µM [1, 5] | cytotoxicity at 20 µM (NIH-3T3 cells; 20 µM, 24 h) | %Cell death HT-29 (HT-29 cells; HT-29) | cytotoxicity at 20 µM (HT-29 cells; [6]) | cytotoxicity at 20 µM (HT-29 cells; [7]) | %Cell death Caco-2 (Caco-2 cells) | %Cell death Caco-2 (Caco-2 cells; time not given, text says 48 h) |
| --- | --- | --- | --- | --- | --- | --- | --- | --- | --- | --- | --- | --- | --- | --- | --- | --- | --- | --- | --- | --- |
| Oc1cc(Cl)ccc1Oc1ccc(Cl)cc1Cl [Triclosan] | 35.6% | 35.6098 | 58.2% | 20.8092% | 20.3% | 21.6% | 23.0449% | 14.8508% |  |  |  |  |  |  |  |  |  |  |  |  |
| C=CCc1ccc(O)c(-c2cc(CC=C)ccc2O)c1 [Magnolol] | 33.2% | 33.2336 | 15.7% | 6.55% | 15.8% | 20.3% | 16.7853% | 10.8986% |  |  |  |  |  |  |  |  |  |  |  |  |
| C[C@@H](NCCCc1cccc(C(F)(F)F)c1)c1cccc2ccccc12 [Cinacalcet HCl] |  | 50.3473 |  | 69.2945% |  |  | 64.4357% | 76.6269% | 50.3473 | 81.0537% | 35.6614% | 79.6038% |  |  |  |  |  |  |  |  |
| CCN(CC)CCOc1ccc(C(=C(Cl)c2ccccc2)c2ccccc2)cc1 [Clomiphene citrate] |  |  |  | 58.221% |  |  |  |  |  |  |  |  | 38.2% | 38.2% | 10.1% | 52.0% | 1.46% | 52% | 34.7% |  |
| O=C1Nc2ccc(Cl)cc2[C@@](C#CC2CC2)(C(F)(F)F)O1 [Efavirenz] |  |  |  | 7.6471% |  |  |  |  |  |  |  |  | 30.3% | 30.3% | 41.4% | 22.0% | 18.5% | 22% | 20.5% |  |
| Cc1cc(Nc2cc(CN3CCOCC3)c3nc(C)c(Cc4ccc(Cl)cc4F)n3n2)n[nH]1 [LY2784544] |  |  |  | 50.4683% |  |  | 12.6848% | 17.5299% |  |  |  |  | 36.5% | 36.5% | 62.8% |  | 6.62% | 55.6% |  |  |
| CCOC(=O)C1=C(C)NC(C)=C(C(=O)OCC)C1c1ccccc1/C=C/C(=O)OC(C)(C)C [Lacidipine] |  |  |  | 0.2227% |  |  | 4.66% | 4.938% |  |  |  |  | 27.1% | 27.1% | 0.275% |  | 1.94% | 2.6% |  |  |
| Ivermectin |  | 41.4556 |  | 70.901% |  |  | 4.453% | 5.173% | 41.4556 | 38.0218% | 6.036% | 78.9396% |  |  |  | 78.9% |  |  |  | 5.2% |
| O=c1[nH]c2ccccc2n1C1CCN(CCCC(c2ccc(F)cc2)c2ccc(F)cc2)CC1 [Pimozide] | 38.4% | 38.4171 |  | 78.5926% |  |  |  |  |  |  |  |  |  |  | 65.9% | 64.6% | 11% | 64.6% | 59.9% |  |
| Cc1ccc(Sc2ccccc2N2CCNCC2)c(C)c1 [Vortioxetine (Lu AA21004) HBr, Vortioxetine] |  |  |  | 71.7539% |  |  | 33.0298% | 76.1709% |  |  |  |  | 35.4% | 35.4% | 78.5% | 52.1% | 7.35% | 52.1% |  | 52.1% |
